≈ marks a conversion by molar mass, not a printed value. Entries after “also recorded” stand apart in the source; their conditions may differ.
What was measured:
[1] = target: T1, dihydrofolate reductase (DHFR) enzyme (Homo sapiens, UniProt P00374); test: In vitro DHFR inhibition assay; type: biochemical
T1 sequence (P00374 1-187): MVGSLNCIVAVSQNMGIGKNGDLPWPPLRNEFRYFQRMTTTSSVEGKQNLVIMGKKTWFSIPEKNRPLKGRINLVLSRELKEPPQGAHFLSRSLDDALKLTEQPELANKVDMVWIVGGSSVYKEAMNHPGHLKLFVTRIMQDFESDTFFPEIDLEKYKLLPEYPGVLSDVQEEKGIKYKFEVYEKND

MRSA [2] = test: Agar diffusion method, inhibition zones, MRSA; type: cell-based, methicillin-resistant Staphylococcus aureus; conditions: Staphylococcus aureus, 24 h, read-out: IZ (inhibition zone)
P. aeruginosa [3] = test: Agar diffusion method, inhibition zones, P. aeruginosa; type: cell-based, Pseudomonas aeruginosa; conditions: 24 h; for IZ (inhibition zone): P. aeruginosa, agar well diffusion, 100 μL of 10 mg/mL in DMSO, 37 °C; for zone of inhibition at 10000 µg/mL: Pseudomonas aeruginosa, read-out: IZ (inhibition zone)
P. aeruginosa [4] = test: Resazurin-based 96-well plate microdilution MIC, P. aeruginosa; type: cell-based; conditions: Pseudomonas aeruginosa, 24 h
MRSA [5] = test: Resazurin-based 96-well plate microdilution MIC, MRSA; type: cell-based, methicillin-resistant Staphylococcus aureus; conditions: Staphylococcus aureus, 24 h
MRSA-induced keratitis = MRSA-induced keratitis in rats; type: in vivo, rat (Sprague–Dawley)

Row | Structure (SMILES) | IC50 [1] [µM] | zone of inhibition at 10000 µg/mL (MRSA [2]) [mm] | IZ (inhibition zone) (P. aeruginosa [3]) | zone of inhibition at 10000 µg/mL (P. aeruginosa [3]) [mm] | MIC (P. aeruginosa [4]) [µM] | MIC (MRSA [5]) [µM] | area % of corneal opacity (infection intensity) (MRSA-induced keratitis; 5c dispersion, versus MRSA group) | inflammation score (MRSA-induced keratitis; H&E cornea, score 0-4, versus MRSA group) | corneal inflammation, histological evaluation (H&E) (MRSA-induced keratitis; MRSA/5c dispersion group compared to MRSA group)
1 | COc1cc(C2=NN(C(C)=O)C(c3cn(-c4ccccc4)nc3-c3ccccc3)C2)cc(OC)c1OC (stereo not drawn) [compound 7, 1-(1′,3′-Diphenyl-5-(3,4,5-trimethoxyphenyl)-3,4-dihydro-1′H,2H-[3,4′-bipyrazol]-2-yl)ethan-1-one] | 6.7 ± 0.31 | 11 | no detectable activity | 0 |  |  |  |  | 
2 | COc1cc(C(=O)/C=C\c2cn(-c3ccccc3)nc2-c2ccccc2)cc(OC)c1OC [compound 4, (Z)-3-(1,3-Diphenyl-1H-pyrazol-4-yl)-1-(3,4,5-trimethoxyphenyl)prop-2-en-1-one] | 5 ± 0.23 | 17 |  | 15 |  |  |  |  | 
3 | COc1cc(-c2cc(-c3cn(-c4ccccc4)nc3-c3ccccc3)[nH]c(=S)n2)cc(OC)c1OC [compound 5b, 6-(1,3-Diphenyl-1H-pyrazol-4-yl)-4-(3,4,5-trimethoxyphenyl)pyrimidine-2(1H)-thione] | 4.1 ± 0.19 | 23 |  | 20 | 4030 (≈ 2000 µg/mL) | 1010 (≈ 500 µg/mL) |  |  | 
4 | C[C@H]1COc2c(N3CCN(C)CC3)c(F)cc3c(=O)c(C(=O)O)cn1c23 [levofloxacin, reference compound] |  | 31 |  | 27 | 1380 (≈ 500 µg/mL) | 346 (≈ 125 µg/mL) |  |  | 
5 | COc1cc(C2=NNC(c3cn(-c4ccccc4)nc3-c3ccccc3)C2)cc(OC)c1OC (stereo not drawn) [compound 6a, 1′,3′-Diphenyl-5-(3,4,5-trimethoxyphenyl)-3,4-dihydro-1′H,2H-3,4′-bipyrazole] | 5.56 ± 0.27 | 15 |  | 6 |  |  |  |  | 
6 | COc1cc(C2=NN(c3ccccc3)C(c3cn(-c4ccccc4)nc3-c3ccccc3)C2)cc(OC)c1OC (stereo not drawn) [compound 6b, 1′,2,3′-Triphenyl-5-(3,4,5-trimethoxyphenyl)-3,4-dihydro-1′H,2H-3,4′-bipyrazole] | 6.45 ± 0.31 | 6 | no detectable activity | 0 |  |  |  |  | 
7 | COc1cc(-c2cc(-c3cn(-c4ccccc4)nc3-c3ccccc3)[nH]c(=N)n2)cc(OC)c1OC [compound 5c, 6-(1,3-Diphenyl-1H-pyrazol-4-yl)-4-(3,4,5-trimethoxyphenyl)pyrimidine-2(1H)-imine] | 4 ± 0.18 | 28 |  | 24 | 2080 (≈ 1000 µg/mL) | 521 (≈ 250 µg/mL) | significantly (P < 0.0001) reduced infection in rats; also recorded: significant reduction in the area % of corneal opacity | significant decrease in inflammation score | mild to moderate inflammatory cell infiltration
8 | COc1cc(-c2cc(-c3cn(-c4ccccc4)nc3-c3ccccc3)[nH]c(=O)n2)cc(OC)c1OC [compound 5a, 6-(1,3-Diphenyl-1H-pyrazol-4-yl)-4-(3,4,5-trimethoxyphenyl)pyrimidine-2(1H)-one] | 4.2 ± 0.2 | 25 |  | 22 | 8320 (≈ 4000 µg/mL) | 2080 (≈ 1000 µg/mL) |  |  | 

Reference: publication PMC10666275 (ACS Omega, 2023)
